Results as given in publication PMC2909763 (Chemistry & biology, 2009).
“Also recorded” adds a separate entry of the source. Blank lines part the entries; values can stand above or below the compound they belong to.

Assays:
HDAC = conditions: read-out: IC50 as HDAC inhibitor; ref Herman et al., 2006; cited from earlier work
[1] = system: FXN mRNA in FRDA lymphoblasts; conditions: FRDA cells in culture; ref Herman et al., 2006; cited from earlier work
[2] = system: FXN mRNA in primary lymphocytes from FRDA patients; assay: FXN mRNA by qRT-PCR in primary FRDA patient lymphocytes; assay type: cell-based, human; conditions: for up-regulation of FXN mRNA: normalized to GAPDH mRNA, relative to DMSO
Sirt1 = conditions: read-out: IC50 Sirt1; reported; ref Napper et al., 2005; cited from earlier work
[3] = system: FXN mRNA in FRDA lymphoblasts; assay: FXN mRNA by qRT-PCR in FRDA lymphoblast cell line; assay type: cell-based, human
[4] = system: FXN mRNA in patient fibroblasts; assay: FXN mRNA in FRDA patient fibroblasts; assay type: cell-based, human; conditions: concentrations up to 10 μM, not shown
Sirt2 = conditions: read-out: IC50 Sirt2; reported; ref Napper et al., 2005; cited from earlier work
[5] = system: p21^WAF1 mRNA in HEK293 cells; assay: p21WAF1 mRNA levels in HEK293 cells; assay type: cell-based; conditions: data not shown
[6] = system: frataxin protein in FRDA lymphoblasts; assay: Frataxin protein by western blot in FRDA lymphoblasts; assay type: cell-based, human; conditions: 106 or 3 at 10 μM, SAHA at 2 μM, 48 h, normalized to GAPDH
class I HDACs = conditions: ref Chou et al., 2008; cited from earlier work
recombinant HDAC2 = recombinant HDAC2 (Homo sapiens, UniProt Q92769); assay: Inhibition of recombinant HDAC2; assay type: biochemical; conditions: data not shown
Sequence of recombinant HDAC2 (Q92769 whole entry): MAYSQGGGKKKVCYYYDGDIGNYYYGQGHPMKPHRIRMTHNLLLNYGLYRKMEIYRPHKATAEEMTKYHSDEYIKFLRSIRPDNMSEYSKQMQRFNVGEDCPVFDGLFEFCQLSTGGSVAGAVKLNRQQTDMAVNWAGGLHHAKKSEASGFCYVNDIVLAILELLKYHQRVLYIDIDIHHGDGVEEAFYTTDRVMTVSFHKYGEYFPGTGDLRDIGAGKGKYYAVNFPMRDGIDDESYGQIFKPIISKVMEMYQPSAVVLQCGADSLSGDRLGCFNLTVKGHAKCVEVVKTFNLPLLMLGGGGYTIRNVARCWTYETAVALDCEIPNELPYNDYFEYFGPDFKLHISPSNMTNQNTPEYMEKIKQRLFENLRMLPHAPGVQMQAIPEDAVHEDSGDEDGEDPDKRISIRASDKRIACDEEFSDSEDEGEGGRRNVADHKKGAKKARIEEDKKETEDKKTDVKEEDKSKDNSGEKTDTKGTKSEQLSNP

[7] = system: acetylated histone H3 in FRDA lymphoblast cell line; assay: Histone H3 acetylation by western blot in FRDA lymphoblasts; assay type: cell-based, human; conditions: for hyperacetylation of histone H3 after inhibitor removal: 3 or 106 at 10 μM, SAHA at 2 μM, 24 h, then washed, 0 to 7 h
HDAC1 [8] = target: T1, HDAC1 (Homo sapiens, UniProt Q13547); assay: Ki and kinetics from enzyme progression curves, HDAC1; assay type: biochemical
T1 sequence (Q13547 whole entry): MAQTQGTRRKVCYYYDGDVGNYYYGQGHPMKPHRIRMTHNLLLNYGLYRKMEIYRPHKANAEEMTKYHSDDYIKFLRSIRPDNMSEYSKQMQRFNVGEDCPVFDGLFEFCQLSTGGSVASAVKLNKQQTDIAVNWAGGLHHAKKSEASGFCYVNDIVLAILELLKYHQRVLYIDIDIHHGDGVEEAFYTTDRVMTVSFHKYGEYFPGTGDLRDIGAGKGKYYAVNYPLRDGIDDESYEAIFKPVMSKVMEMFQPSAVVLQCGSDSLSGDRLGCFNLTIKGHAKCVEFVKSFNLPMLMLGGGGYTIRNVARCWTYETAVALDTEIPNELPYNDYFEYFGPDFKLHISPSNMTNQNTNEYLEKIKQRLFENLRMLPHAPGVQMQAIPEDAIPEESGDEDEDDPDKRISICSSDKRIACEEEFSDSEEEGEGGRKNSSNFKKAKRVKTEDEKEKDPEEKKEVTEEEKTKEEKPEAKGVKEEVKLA

HDAC1 [9] = target: T1, HDAC1; assay: IC50 with recombinant HDAC1; assay type: biochemical
HDAC3/NcoR2 = HDAC3/NcoR2 (Homo sapiens, UniProt O15379); assay: Ki and kinetics from enzyme progression curves, HDAC3; assay type: biochemical; conditions: fit of Kobs versus inhibitor concentration
Sequence of HDAC3/NcoR2 (O15379 whole entry): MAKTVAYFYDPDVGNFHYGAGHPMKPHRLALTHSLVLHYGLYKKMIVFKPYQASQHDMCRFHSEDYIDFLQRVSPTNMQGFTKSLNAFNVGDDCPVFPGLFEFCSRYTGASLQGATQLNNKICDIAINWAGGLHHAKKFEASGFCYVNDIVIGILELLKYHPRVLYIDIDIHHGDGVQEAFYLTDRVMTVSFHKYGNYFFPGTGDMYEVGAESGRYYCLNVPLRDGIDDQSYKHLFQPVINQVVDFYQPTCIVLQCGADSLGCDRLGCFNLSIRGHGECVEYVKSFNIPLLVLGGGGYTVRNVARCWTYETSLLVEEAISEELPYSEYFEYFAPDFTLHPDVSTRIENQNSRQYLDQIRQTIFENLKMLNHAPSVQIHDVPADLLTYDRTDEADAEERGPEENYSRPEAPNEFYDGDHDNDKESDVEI
Sequence of HDAC3/NcoR2 (Q9Y618 395-489 partner limits assumed): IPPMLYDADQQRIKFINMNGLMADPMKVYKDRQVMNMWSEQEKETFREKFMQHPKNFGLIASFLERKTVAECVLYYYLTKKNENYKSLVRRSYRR

[10] = system: tubulin acetylation (class II HDAC6) in FRDA lymphoblasts; assay: Tubulin acetylation by western blot in FRDA lymphoblasts; assay type: cell-based, human
HDAC7 = target: T2, HDAC7 (Homo sapiens, UniProt Q8WUI4); assay: IC50 with recombinant HDAC7; assay type: biochemical
T2 sequence (Q8WUI4 1-952): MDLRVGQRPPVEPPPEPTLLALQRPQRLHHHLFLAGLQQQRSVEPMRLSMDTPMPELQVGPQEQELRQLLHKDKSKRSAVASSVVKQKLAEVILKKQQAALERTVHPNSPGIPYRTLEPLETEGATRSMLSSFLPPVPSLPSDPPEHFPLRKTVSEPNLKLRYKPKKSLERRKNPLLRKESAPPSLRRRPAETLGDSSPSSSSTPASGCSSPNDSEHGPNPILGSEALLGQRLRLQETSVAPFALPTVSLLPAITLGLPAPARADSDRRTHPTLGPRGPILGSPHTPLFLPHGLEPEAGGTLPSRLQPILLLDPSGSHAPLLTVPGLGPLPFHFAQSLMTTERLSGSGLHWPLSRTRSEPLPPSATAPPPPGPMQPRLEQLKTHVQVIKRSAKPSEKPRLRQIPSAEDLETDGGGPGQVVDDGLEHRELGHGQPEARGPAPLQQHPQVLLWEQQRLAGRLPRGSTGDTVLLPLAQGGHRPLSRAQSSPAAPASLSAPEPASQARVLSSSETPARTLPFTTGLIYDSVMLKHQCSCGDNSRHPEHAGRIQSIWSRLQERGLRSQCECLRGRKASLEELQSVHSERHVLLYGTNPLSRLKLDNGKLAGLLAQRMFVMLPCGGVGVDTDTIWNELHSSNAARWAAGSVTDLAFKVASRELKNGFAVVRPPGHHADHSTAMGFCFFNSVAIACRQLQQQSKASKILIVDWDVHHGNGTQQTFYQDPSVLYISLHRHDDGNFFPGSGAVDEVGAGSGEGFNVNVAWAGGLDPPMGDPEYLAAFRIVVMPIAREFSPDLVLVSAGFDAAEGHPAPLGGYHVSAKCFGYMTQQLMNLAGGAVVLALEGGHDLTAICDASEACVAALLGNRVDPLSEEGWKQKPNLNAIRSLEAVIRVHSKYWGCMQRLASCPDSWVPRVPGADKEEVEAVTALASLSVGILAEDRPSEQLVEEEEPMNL

class II HDACs = conditions: read-out: IC50s for class II enzymes; ref Chou et al., 2008; cited from earlier work
recombinant HDAC8 = conditions: ref Chou et al., 2008; cited from earlier work
[11] = recombinant HDAC1 vs HDAC3/NcoR2

Structure (SMILES): O=C(CCCCCC(=O)Nc1ccccc1)Nc1ccccc1 [5b, N^1-phenyl-N^7-phenylheptanediamide]
IC50 (HDAC): ~200 µM
activation of FXN gene expression [1]: fails to activate

Structure (SMILES): NC(=O)C1CCCc2c1[nH]c1ccc(Cl)cc21 (stereo not shown) [6-chloro-2,3,4,9-tetrahydro-1H-carbazole-1-carboxamide]
effect on FXN mRNA levels ([2]; concentrations up to 10 μM, 48 h): no effect
effect on FXN mRNA levels ([3]; concentrations up to 10 μM, not shown): no effect
effect on FXN mRNA levels [4]: no effect

Structure (SMILES): O=C(CCCCCCC(=O)Nc1ccccc1)NO [SAHA, suberoylanilide hydroxamic acid, reference compound]
p21^WAF1 mRNA levels [5]: increased
activation of FXN gene expression [1]: neither TSA nor SAHA is an activator
effect on frataxin protein levels [6]: decreased

Structure (SMILES): CC(/C=C/C(=O)NO)=C\[C@@H](C)C(=O)c1ccc(N(C)C)cc1 [TSA, trichostatin A, reference compound]
activation of FXN gene expression [1]: neither TSA nor SAHA is an activator
inhibition kinetics with class I HDACs (class I HDACs): fast-on/fast-off

activity against recombinant HDAC2 (recombinant HDAC2): similarly active
inhibition mechanism, HDAC1 (HDAC1 [8]; fit of Kobs versus inhibitor concentration): slow-on/slow-off
preference for HDAC1 over HDAC3 from Ki measurements (HDAC1 [8]; [11]): ~ 350 fold
preference for HDAC1 over HDAC3 comparing IC50 values (HDAC1 [9]; [11]): ~ 75 fold
inhibition mechanism, HDAC3/NcoR2 (HDAC3/NcoR2): simple slow-on/slow-off mechanism
Structure (SMILES): Nc1ccc(-c2ccccc2)cc1NC(=O)CCCCCC(=O)Nc1ccccc1 [compound 3, N^1-(4-aminobiphenyl-3-yl)-N^7-phenylheptanediamide]
p21^WAF1 mRNA levels [5]: increased
up-regulation of FXN mRNA levels ([2]; 48 h): fails to reproducibly up-regulate
up-regulation of FXN mRNA ([2]; 48 h): ≤ 1.7 fold
hyperacetylation of histone H3 after inhibitor removal [7]: decreased only slightly
HDAC inhibition in FRDA cells (histone acetylation titration) ([7]; increasing concentrations, western blotting): comparably active
effect on frataxin protein levels [6]: without significant effect
tubulin acetylation ([10]; FRDA lymphoblasts): Neither 106 nor 3 caused tubulin acetylation

IC50 (HDAC7): 4 µM
preference for a class II HDAC (HDAC7) over a class I HDAC (HDAC1) (HDAC7; from IC50 values): 7.5 fold
IC50 (HDAC1 [9]): 30 µM
Structure (SMILES): CC(C)(C)OC(=O)Nc1ccc(NC(=O)CCCC(=O)C(F)(F)F)cc1 [compound 4, tert-butyl 4-(6,6,6-trifluoro-5-oxohexanamido)phenylcarbamate]
up-regulation of FXN transcription ([2]; concentrations up to 40 μM): failed to show up-regulation
effect on levels of FXN mRNA ([3]; concentrations up to 10 μM for 24 h): no positive effect
tubulin acetylation ([10]; 1 μM in culture medium for 24 h): potent inducer
tubulin acetylation ([10]; FRDA lymphoblasts): highly active

Structure (SMILES): Cc1ccc(NC(=O)CCCCCC(=O)Nc2ccccc2N)cc1 [compound 106]
IC50 (class II HDACs): > 180 µM
up-regulation of FXN mRNA levels ([2]; 48 h): highly active
up-regulation of FXN mRNA ([2]; 48 h): 3 – 4 fold
hyperacetylation of histone H3 after inhibitor removal [7]: decreased only slightly
effect on frataxin protein levels [6]: positive effect
inhibition kinetics with class I HDACs (class I HDACs): slow-on/slow-off
activity against HDAC8 (recombinant HDAC8): only weak inhibitory activity; also recorded: only weakly active
tubulin acetylation ([10]; FRDA lymphoblasts): Neither 106 nor 3 caused tubulin acetylation

Structure (SMILES): CCCC(CCC)C(=O)O [valproic acid]
activation of FXN gene expression [1]: none
